This assay has as its system MNT-1 cells. Kind of assay: Measurement of the relative melanin concentration (absorbance at 470 nm of protein lysates). Type of assay: cell-based, human. The conditions noted are these: Homo sapiens, 288 h, 3.5 mM, 12 days, read-out: percentage inhibition (depigmentation positive control). On the procedure:
4×10^5 MNT-1 cells were seeded per well in a 6-well plate (#353046, Falcon) on day-1. On day 0, the cells were transfected with 50 nM of mimetic of the miRNAs (hsa-mir-137 # C-300604-07-005, hsa-mir-7 # C-300547-05-0005, hsa-mir-330-5p # C-301082-01-0005, negative control # NC-002000-01-05, Dharmacon), using 5 μL of Lipofectamine 2000 (#1668-019, Invitrogen). On day 1, the medium was changed. On day 3, the cells were trypsinized and seeded at 4×10^5 cells per well. On day 4, the cells were transfected again with 50 nM of mimetic of the miRNAs (see day 0). On day 5, the medium was changed. On day 7, the cells were trypsinized and seeded at 4×10^5 cells per well. On day 8, the cells were transfected with 50 nM of mimetic of the miRNAs (see day 0). On day 9, the medium was changed. On day 10, the cells were trypsinized and divided into two (from one by six wells to two by six wells). On day 12, one six-well plate was used for lysis of the RNA and the other for lysis of the proteins. As positive control of depigmentation, MNT-1 cells were incubated with 3.5 mM of kojic acid (Sigma K3125-5G) for 12 days. The cells were distributed as described and the kojic acid was renewed with the medium every 4 days. The percentage inhibition of the kojic acid is of the order of 10%.
On day 12, the cells were washed in PBS twice and lysed in 75 μL/well of a 6-well dish of lysis buffer for the RIPA proteins. The protein lysates were transferred to 1.5-ml Eppendorf tubes and vortexed lightly to homogenize the solution before putting the tube on ice or for storage at −80° C. 2 μL of protein lysate was used for measuring the absorbance of the melanin at 470 nm using the NanoVue spectrophotometer (GE Healthcare). The protein lysate of the unpigmented XB2 keratinocytes was used as calibrator sample (reference=0). To detect the relative quantity of melanin, all the samples were compared with the transfection control sample (miCtrl). The absorbance at 470 nm of the sample miCtrl was fixed at 1 as reference. In addition, the melanin absorption at 470 nm was normalized taking into account the concentration of proteins of each sample relative to miCtrl.

One may read the inhibition as the drop in the measured response relative to a control, in per cent. On to `O=c1cc(CO)occ1O` [kojic acid, reference compound], for which the inhibition at 3500 µM is ~10%.

Values taken from patent US9410152B2, “Use of microrna molecules to influence skin pigmentation” (CHANEL PARFUMS BEAUTE, priority 2011, dated 2016).
